Experimental data taken from a melting point compilation (Tetko et al.; mined from patent text by program, amines drawn as free bases though some values may be those of a salt).
Non-standard residues stand in square brackets, D forms with d. Residues, ends and D or L forms follow the SMILES beside them. ξ: configuration not given here. *: point of attachment. Boc = CC(C)(C)OC(=O)*; ξA = CC(N)C(=O)O

melting point [°C] | Compound
192 to 194 | Cc1ccc(-n2c(=O)n(OCc3ccccc3)c(=O)c3cc(F)c(N4CCCC4)nc32)cc1
242 to 243 | O=C(O)c1ccccc1N1C(=O)c2ccc([N+](=O)[O-])cc2C1=O
106 to 108 | CC(C)(C)NS(=O)(=O)c1ccccc1CCOS(C)(=O)=O
96 to 98 | Cn1c(C(N)=O)c(-c2ccc(N)cc2)c2ccccc21
116 to 117 | CCCCC1(COC(=O)C(C)(C)C)C(=O)N(c2ccccc2)N(c2ccccc2)C1=O
144 to 146 | CN(c1ccccc1)c1ncccc1NC(=O)c1ccccc1Br
219 to 221 | Cc1nc(-c2ccccc2)nc(-c2cccc([N+](=O)[O-])c2)c1CC#N
222 to 224 | CCOc1ccc2[nH]cc(C(=O)NCc3ccccn3)c(=O)c2c1
121 to 126 | COC(=O)c1ccc(SC(Cn2ccnc2)c2ccccc2C(F)(F)F)cc1 (stereo not given)
98 to 105 | CC(C)(COc1ccc(CNC(=O)C2Cc3ccccc3N2S(=O)(=O)c2ccc(-c3ccccc3C(F)(F)F)cc2)cc1)C(=O)O (stereo not given)
151 | CN(CCCCc1ccc(NC(=O)c2cccc3c(=O)c4ccccc4[nH]c23)cc1)Cc1ccc(F)cc1
175 to 180 | COc1cc(O)ccc1/C=C/C(=O)CC(=O)/C=C/c1cc(OCc2ccccc2)ccc1-c1ccccc1
67.6 to 68.5 | CCCCCCC(C)Oc1ccc(-c2ccc(C(C)=O)cc2)cc1F (stereo not given)
133 to 134 | CCCc1nc(NS(=O)(=O)c2ccc(C(C)(C)C)cc2)c(-c2ccc(C)cc2)c(OCCO)n1
133 to 134 | C=C(C)C(C(=O)OCC(Cl)(Cl)Cl)N1C(=O)C(NC(=O)Cc2ccccc2)C1SSc1nc2ccccc2s1 (stereo not given)
128 to 133 | O=C(C(=O)N(CCO)CCO)c1ccc(OCCOc2ccc3ccccc3c2)cc1

melting point [°C] | Compound
303 to 307 | O=C(O)C(Cc1ccc(OCCN2c3ccccc3Oc3ccccc32)cc1)C(=O)O
82 | CCOC(=O)c1cccc(C=Cc2ccccc2)c1
108 to 109 | CNC(=O)C(=O)CCCCCCS(=O)(=O)c1ccc2ccccc2c1
153 to 155 | O=C1c2ccccc2C(=O)N1c1ccc(Cl)cn1
74.5 to 76.3 | CC(=O)NC[C@H]1CN(c2ccc(-n3nccc3-c3ccncc3)c(F)c2)C(=O)O1
154 to 155 | O=C(c1ccc(-c2ccccc2)cc1)C1(n2cncn2)CC1
152 to 153 | COc1cccc(C(=O)c2ccc(OCc3nc(-c4ccccc4)oc3C)cc2)c1O
130 to 132 | COc1ccc2c(n1)C1(CO2)C(=O)N(Cc2ccc(Cl)s2)c2ccccc21 (stereo not given)
180 to 181 | O=c1c2c(c3cccnc3n1-c1ccccc1)OCCCC2
134 to 144 | CN=C(NS(=O)(=O)c1ccc(Cl)cc1)C1=NN(c2ccc(Cl)cc2)C(c2ccccc2)C1 (stereo not given)
166 to 168 | COC(=O)C1=C(C)NC(C(OC)OC)=C(C(=O)OC)C1c1cccc2c(=O)c(C)c(-c3ccccc3)oc12 (stereo not given)
72 to 74 | CCOC(=O)c1ccc(OCc2ccccc2)c(OC)c1
135 to 138 | COc1ccc2c(c1)C(C(=O)N(Cc1ccc(NCc3ccccc3)cc1)c1ccc(C(C)C)cc1)CCC2 (stereo not given)
263 to 265 | Cn1ncnc1COc1nn2c(-c3ccccc3)nnc2cc1-c1ccco1
89 | Cc1c(CC(=O)NCCO[N+](=O)[O-])cc(-c2ccc(S(C)(=O)=O)cc2)n1-c1ccccc1
129 to 130 | CCCCOC(C(=O)Oc1ccc(C(=O)O)cc1)c1ccc2c(c1)C(C)(C)CCC2(C)C (racemic)

More lines, now with the values behind:

Compound | melting point [°C]
CC(C)(C)OC(=O)N1CC2CCCCC(C1)C2=O | 50 to 52
O[C@@H]1[C@H](O)[C@H](O)CO[C@H]1n1c(Br)nc2cc(Cl)c(Cl)cc21 | 164 to 165
Cc1ccnc(C=NNC(N)=S)c1N | 227 to 228
CNc1cc(Oc2ccc(NC(=O)Nc3ccc(C(C)(C)C)cc3)cc2)ncn1 | 245 to 246
CCOC(=O)C(=O)N(c1ccccc1N)C(C)(C)C | 64 to 65
COc1ccc(C2Nc3ccc(Cl)cc3C(C#CC3CC3)(C(F)(F)F)O2)cc1OC (stereo not given) | 172 to 175
CCn1cc(C(=O)O)c(=O)c2cc(F)c(N3CCNC(CF)C3)cc21 (stereo not given) | 177 to 180
N#Cc1ccc(CC23CCCN2C(=O)N(c2cc(Cl)c(N)c(Cl)c2)C3=O)cc1 (stereo not given) | 103
COc1ccc2c(c1)CCC1CCNC(=O)C(CCNC(C)C)=C21 (stereo not given) | 147 to 149
O=Cc1ccc(-c2cc(Br)ccn2)o1 | 105 to 106
Cc1oc2ccccc2c1C(=O)O | 171 to 176
COc1ccc(/C(=C\C=O)c2ccccc2OC)cc1 | 92 to 94
CC(C)CC(COCC(N)=O)NC(=O)C1CCCN1C(=O)OCc1ccccc1 (stereo not given) | 146 to 148
CNC(=O)Nc1snc(N2CCCC2)c1C#N | 239
CNc1snc(C)c1[N+](=O)[O-] | 153
COC(=O)CCc1cc2c(s1)NC(=S)C(C)N=C2c1ccccc1Cl (stereo not given) | 198 to 200
CCCOc1ccc(Br)c2c(=O)c3ccccc3sc12 | 112 to 114
CC(C)(C)c1ccc(C(=O)Nc2cn3cc(Br)ccc3n2)cc1 | 249 to 250
O=C(Nc1ccccc1)OC(C1CC1)C1CC1 | 92 to 94
COC(=O)CNC(=O)C(C)NC(=O)CNC(=O)CNC(=O)OC(C)(C)C (stereo not given) (Boc-GG[ξA]G-OMe) | 103 to 105
COC(=O)COc1cc2ccccc2c2c1c(C(=O)C(N)=O)c(C)n2CC1CCCCC1 | 156 to 158
CN(C)C(=O)C1CN(C)c2nc3cc(F)c(F)cc3cc2C1=O (stereo not given) | 206
COc1c(N2CCC(NC3CC3)C(C)C2)c(F)c(N)c2c(=O)c(C(=O)O)cn(C3CC3)c12 (stereo not given) | 218 to 220

Compound | melting point [°C]
Cc1c(-c2cn(C)c(=O)c(Nc3ccc(C4C(=O)N(C)CCN4C(=O)OC(C)(C)C)cc3)n2)cccc1N1Cc2cc(C(C)(C)C)sc2C1=O (stereo not given) | 120 to 123
c1ccc2cc(N3CCC4(CCNCC4)CC3)ccc2c1 | 158 to 162
Clc1ccc(C(=Cn2cnnn2)OCc2ccccc2)c(Cl)c1 | 92
COc1cc(-c2ccc(Br)cc2)oc1-c1ccc(Br)cc1 | 112 to 113
CSC1=N/C(=C\c2c[nH]c3ncc(Cl)cc23)C(=O)N1 | > 410
COc1cc2c(cc1[N+](=O)[O-])-c1c(-c3cccs3)c3c(n1CC2)C(=O)N(C(C)(C)C)CCC3 | 279 to 280
CCOC(=O)C1=C(C)NC(CO)=C(C(=O)OCC)C1c1cccs1 (stereo not given) | 125 to 126
O=C(O)c1cc(=O)c2cc3c(c(CC(O)CO)c2o1)CCCC3 (stereo not given) | 217 to 218
CC(=O)Oc1nc2c(N)ncnc2n1Cc1ccccc1 | 189 to 191
Nc1nc(-c2ccco2)c(C(=O)C2CCC(=O)CC2)s1 | 232 to 235
COc1ccc(S(=O)(=O)C2(C(=O)NO)CCN(C(C)C)CC2)cc1 | 75
CCOC(=O)c1cn(C)c2cc(C)sc2c1=O | 143 to 144
Cc1cc(C)cc(C(=O)OCC2(N3CCN(C(=O)OC(C)(C)C)CC3)Cc3ccccc3C2)c1 | 139
CCC(O)c1cc(C)nc(Oc2c(C)cc(C)cc2C)c1C (stereo not given) | 119 to 120
CC(C)OC(=O)c1n[nH]c2c(=O)[nH]c3cc(Cl)ccc3c(=O)c12 | 291
CN(C)N1C2=NCCN2C(=O)c2ccccc21 | 197 to 198
CNS(=O)(=O)Cc1cc(Br)c(NC(=O)C(F)(F)F)c(Br)c1 | 179 to 180
CC(=O)C1C(=O)CN(Cc2ccccc2)C1=O (stereo not given) | 74 to 75
Cc1cccc(-c2n[nH]cc2-c2ccc(F)c(-c3ccc(C(C)(C)O)cn3)c2)n1 | 169 to 172
CNC(=S)Nc1ccc2c(c1)C(=O)C1(CC1)O2 | 191 to 194
CCCCCCCCCCCCn1c2cc(Cl)ccc2c2ccc(Cl)cc21 | 70 to 71
COC(=O)C=CCC1C(=O)N2C(C(=O)OCC(Cl)(Cl)Cl)=CCC12 (stereo not given) | 101 to 102
CCOC1C(NC(C)=O)CC(OC)OC1C (stereo not given) | 199 to 200

Compound | melting point [°C]
OCc1cn(-c2cc(F)cc(C(F)(F)F)c2)cn1 | 144 to 145
Nc1cc(-c2ccccc2)cc2nc(-c3ccccc3)nn12 | 214 to 216
COC(=O)N1CCc2ccc3cc[nH]c3c2CC1 | 169 to 171
O=C1Nc2ccc(Br)cc2C(c2ccccc2)=NC1OC(=O)C(F)(F)F (stereo not given) | 181 to 183
CN1CCN(C2=Nc3cc(Cl)cc4ccn(c34)-c3ccccc32)CC1 | 184 to 186
O=C1Cc2cc(F)c(Cl)cc2N1 | 196 to 206
Cc1ccc([C@@H](O)C(F)(F)F)cc1 | 44.2
COc1ccc(OC)c(S(=O)(=O)NC(=O)C(C)Br)c1 (stereo not given) | 116 to 118
CCc1ccc(C)cc1-n1cncc1C(=O)OC | 56 to 57
CCNC(=O)c1c([Si](C)(C)C)ccc(OC)c1Cl | 136 to 137
O=C(Nc1ccc(-c2ccc(C(=O)N3CCN4CCC3CC4)o2)cc1)Nc1cccc(F)c1 | 230
Cc1nc(-c2ccc(OCC(C)C)c(Br)c2)sc1C(=O)O | 200 to 202
COc1nc(C)c(C)nc1NC(=O)N1CCN(c2cc(F)cc(F)c2)CC1 | 153 to 154
CNC(=O)Nc1cc(C(C)(C)C)c2c(c1)C(C)(C)CO2 | 193 to 194
O=c1cc(-c2cc[nH]n2)oc2ccc(Cl)cc12 | 217 to 219
CCOC(=O)CC(=O)CSc1nc2cc(Cl)c(F)cc2c(O)c1C(=O)OCC | 167 to 170
CCOC(=O)c1cn(C(C)C(OC)OC)c2c(F)c(F)c(F)cc2c1=O (stereo not given) | 125 to 126
Cc1cc(N)n(-c2c(Cl)cc(Cl)cc2Cl)n1 | 132 to 134
O=[N+]([O-])c1cc(F)c(O)c(F)c1 | 98.4 to 101
Nc1sc(-c2ccoc2)c(CN(C2CCCCC2)C2CCCCC2)c1C(=O)c1ccc(Cl)cc1 | 132 to 135
Cc1n[nH]c2cc(-c3nn(C(C)c4oc5ccc(F)cc5c(=O)c4-c4cccc(F)c4)c4ncnc(N)c34)ccc12 (stereo not given) | 234 to 236
CCN(CC)CCNc1ccnc2cc(C(F)(F)F)ccc12 | 122 to 124
